Results as given in patent US7452556B2, “Compositions for the treatment of pilosebaceous gland inflammations comprising aluminum fluoride” (Medidermis Ltd., priority 2001, dated 2008).

What was measured:
[1] = cited from earlier work
[2] = test system: Acne Vulgaris inflammatory lesion
Experimental: (§1) An Acne Vulgaris (FIGS. 1a, 1b and 1c) inflammatory lesion on the right cheek of a subject was treated by AIF trihydrate at 0.5% concentration dissolved in water only. The subject applied each 3-4 h the solution as a spray. Pictures were performed in a room with artificial constant light by a Sony Mavica FD95 digital camera at a resolution of 1600×1200 pixels.
(§2) Area of inflammation was measured by image analysis techniques as follows:
(§3) Pictures (FIGS. 1a, 1b and 1c) were saved as a BMP file and loaded into Scion Imaging software v. 4.02 (NIH, USA). All three pictures were concomitantly analyzed on the same frame. First, pictures in gray scale were smoothed, manually thresholded, turned into a binary picture and the results transformed to an outline filter. The area of each outlined papule was measured by the software (n=3) and data was further plotted and statistically analyzed by student's t-test in FIG. 2 (Sigmaplot, Jandel, Java).

[3] = test system: Folliculitis inflammatory lesion
Experimental: as §1, with “A Folliculitis” for “An Acne Vulgaris”, “3a, 3b” for “1a, 1b”, “3c)” for “1c)”, “left posterior thigh […]” for “right cheek”
as §2
as §3, with “(FIGS. 3a, 3b” for “(FIGS. 1a, 1b”, “and 3c)” for “and 1c)”, “FIG. 4” for “FIG. 2”

[4] = 0.5% in water only, spray each 3-4 h, right cheek, subject, FIGS. 1a-1c
[5] = 0.5% in water only, spray each 3-4 h, left posterior thigh, subject, FIGS. 3a-3c

Molecule | incidence of severe side effects ([1]; oral, Strauss J S et al, J Am Acad Dermatol, 2001) | side effect: dryness ([1]; systemic retinoid) | side effect: hair loss ([1]; systemic retinoid) | side effect: liver function disorder ([1]; systemic retinoid) | side effect: musculo-skeletal pains ([1]; systemic retinoid) | side effect: photosensitivity ([1]; systemic retinoid) | final resolution of the papule, time [2, 4] | rapid fading of the papule, time from start of treatment [2, 4] | heals the inflamed papule within (area of lesion, image analysis) ([2]; FIG. 2, n=3 area measurements, p<0.01 at 14 h and at 26 h) | final resolution of the papule, time [3, 5] | rapid fading of the papule, time from start of treatment [3, 5] | heals the inflamed papule within (area of lesion, image analysis) ([3]; FIG. 4, n=3 area measurements, p<0.01 at 10 h and p<0.001 at 18 h)
CC1=C(/C=C/C(C)=C/C=C/C(C)=C\C(=O)O)C(C)(C)CCC1 [isotretinoin] | 35% | 100% | 30% | 5% | 15% | 90% | – | – | – | – | – | –
Aluminum fluoride [AIF trihydrate] | – | – | – | – | – | – | 26 h | 14 h | about 24 h | 18 h | 10 h | about 18 h
